Results from patent US6300065A, “Yeast cell surface display of proteins and uses thereof” (Board of Trustees of the University of Illinois, priority 1998, dated 2001).

Key:
[1] = system: 4-4-20 anti-fluorescein scFv, wild-type, yeast surface displayed Aga2p fusion; assay: Competitive dissociation of labeled antigen from yeast surface displayed scFv, followed by flow cytometry; assay type: binding; conditions: 5-aminofluorescein as competitor
Protocol: (§1) Yeast cells bearing plasmid pCT202 were grown and labeled with anti-c-myc mAb 9E10 and FITC-dextran or biotin-fluorescein, as described. A fraction of the labeled population was analyzed flow cytometrically to determine the initial level of fluorescence. Non-fluorescent competitor (5-aminofluorescein) was added to a final concentration of approximately […] (~1000-fold excess) and the FITC or PE fluorescence of the c-myc positive cell population was followed as a function of time at room temperature (21-23° C.) on a Coulter Epics XL. Data were fitted as an exponential decay. The probability that a polyvalent antigen is bound to the cell as a function of time is given by P=1-(1-e^-kt)^N, where N is the valency, k is the kinetic rate constant for dissociation, and t is time. For long times t, this reduces to P=Ne^-kt. Thus, extrapolation of data for long t to time zero yields P=N, or a fluorescence intensity of Fext =N Fo, where Fext is the extrapolated fluorescence at the time of competitor addition and Fo is the actual initial fluorescence.

[2] = system: 4-4-20 anti-fluorescein scFv mutant 4M1.2, yeast surface displayed Aga2p fusion; assay: as above; assay type: binding; conditions: 23° C., 5-aminofluorescein as competitor
Protocol: as §1

[3] = target: 4-4-20 anti-fluorescein antibody; conditions: stated in discussion, no method given; cited from earlier work
[4] = system: 4-4-20 anti-fluorescein scFv mutant 4M1.1; assay: Soluble fluorescein dissociation kinetics by spectrofluorometry (fluorescence quenching, whole cells displaying scFv); assay type: binding; conditions: mutant 4M1.1 vs wild-type 4-4-20 scFv
Protocol: (§2) Binding to soluble fluorescein (FDS) was assayed by observing fluorescence quenching by whole cells displaying scFv. Cells were suspended at 2×10^7 cells/ml in TBS+0.1% BSA in a quartz cuvette thermostatted at 23° C. and titrated with FDS over a range of 0-7.5 nM. […] Control cells displaying an irrelevant scFv were titrated to obtain a slope for a two-parameter fit of an equilibrium binding model to the data, yielding equilibrium constants and effective scFv concentrations. Following the equilibrium titration, 5-aminofluorescein was added to 1 mM and the change in fluorescence of the sample followed with time to determine koff for FDS.

[5] = system: 4-4-20 anti-fluorescein scFv mutant 4M1.2; assay: as above; assay type: binding; conditions: mutant 4M1.2 vs wild-type 4-4-20 scFv
Protocol: as §2

| SMILES | monovalent dissociation rate constant (koff) for fluorescein-biotin ([1]; 21° C.) [s⁻¹] | koff for fluorescein-biotin ([1]; 23° C., wild-type) [s⁻¹] | koff for fluorescein-biotin [2] [s⁻¹] | Kd [3] [nM] | improvement of soluble fluorescein dissociation kinetics relative to wild-type [4] [fold] | improvement of soluble fluorescein dissociation kinetics relative to wild-type [5] [fold] |
| --- | --- | --- | --- | --- | --- | --- |
| O=C(CCCCCNC(=O)CCCC[C@@H]1SC[C@@H]2NC(=O)N[C@@H]21)NCCCCCNC(=S)Nc1ccc2c(c1)C(=O)OC21c2ccc(O)cc2Oc2cc(O)ccc21 [fluorescein-biotin] | 0.0039 | 0.005 | 0.0028 |  |  |  |
| O=C1OC2(c3ccc(O)cc3Oc3cc(O)ccc32)c2ccccc21 [fluorescein] |  |  |  | 0.4 | 2.2 | 2.2 |
